According to ChEMBL document CHEMBL3046146, “Mutations in the mitochondrial cytochrome b of Tetranychus urticae Koch (Acari: Tetranychidae) confer cross-resistance between bifenazate and acequinocyl” (2009):
In brackets after ≈: the same amount, converted by molar mass.

Columns and labels:
Assay type in all cases: functional
[1] = tested on: Tetranychus urticae; assay: Resistance ratio of LC50 for bifenazate-resistant Tetranychus urticae BR-VL (two-spotted spider mite) harboring mitochondrial G126S, S141F and D161G Cytb mutation to LC50 for Tetranychus urticae GSS
[2] = tested on: Tetranychus urticae; assay: Synergism ratio of LC50 for adult Tetranychus urticae GSS (two-spotted spider mite) to LC50 for adult Tetranychus urticae GSS in presence of 1000 mg/L esterase inhibitor, DEF application
[3] = tested on: Tetranychus urticae; assay: Toxicity against adult Tetranychus urticae BEL1 (two-spotted spider mite) in bean leaves assessed as mortality treated 24 hr after 2000 mg/L cytochrome P450 monoxygenase inhibitor, PBO application; details: BEL-1, 24 h
[4] = tested on: Tetranychus urticae; assay: Toxicity against adult bifenazate-resistant Tetranychus urticae BEL1 (two-spotted spider mite) harboring mitochondrial P262T Cytb fixed mutation in compound pretreated bean leaves assessed as mortality; details: BEL-1
[5] = tested on: Tetranychus urticae; assay: Resistance ratio of LC50 for Tetranychus urticae HOL2 (two-spotted spider mite) harboring mitochondrial G126S Cytb mutation to LC50 for Tetranychus urticae GSS
[6] = tested on: Tetranychus urticae; assay: Toxicity against adult Tetranychus urticae BR-VL (two-spotted spider mite) in bean leaves assessed as mortality treated 24 hr after 2000 mg/L GST inhibitor, DEM application
[7] = tested on: Tetranychus urticae; assay: Toxicity against adult Tetranychus urticae GSS (two-spotted spider mite) in compound pretreated bean leaves assessed as mortality
[8] = tested on: Tetranychus urticae; assay: Resistance ratio of LC50 for bifenazate-resistant Tetranychus urticae (two-spotted spider mite) BEL1 harboring mitochondrial P262T Cytb fixed mutation to LC50 for Tetranychus urticae GSS
[9] = tested on: Tetranychus urticae; assay: Synergism ratio of LC50 for adult Tetranychus urticae GSS (two-spotted spider mite) to LC50 for adult Tetranychus urticae GSS in presence of 2000 mg/L cytochrome P450 monoxygenase inhibitor, PBO
[10] = tested on: Tetranychus urticae; assay: Toxicity against adult Tetranychus urticae BR-VL (two-spotted spider mite) in bean leaves assessed as mortality treated 24 hr after 2000 mg/L cytochrome P450 monoxygenase inhibitor, PBO application
[11] = tested on: Tetranychus urticae; assay: Toxicity against adult Tetranychus urticae BEL1 (two-spotted spider mite) in bean leaves assessed as mortality treated 24 hr after 2000 mg/L GST inhibitor, DEM application; details: BEL-1, 24 h
[12] = tested on: Tetranychus urticae; assay: Resistance ratio of LC50 for Tetranychus urticae HOL1 (two-spotted spider mite) harboring mitochondrial G126S and I136T Cytb mutation to LC50 for Tetranychus urticae GSS
[13] = tested on: Tetranychus urticae; assay: Resistance ratio of LC50 for Tetranychus urticae HOL3 (two-spotted spider mite) harboring mitochondrial P262T Cytb heteroplasmic mutation to LC50 for Tetranychus urticae GSS
[14] = tested on: Tetranychus urticae; assay: Toxicity against adult bifenazate-resistant Tetranychus urticae BR-VL (two-spotted spider mite) harboring mitochondrial G126S, S141F and D161G Cytb mutation in compound pretreated bean leaves assessed as mortality
[15] = tested on: Tetranychus urticae; assay: Toxicity against female adult Tetranychus urticae (two-spotted spider mite) F1 progeny generated from reciprocal cross between female GSS and male BEL1 in compound pretreated bean leaves assesed as mortality
[16] = tested on: Tetranychus urticae; assay: Resistance ratio of LC50 for bifenazate-susceptible Tetranychus urticae LS-VL (two-spotted spider mite) to LC50 for Tetranychus urticae GSS
[17] = tested on: Tetranychus urticae; assay: Toxicity against adult Tetranychus urticae MR-VL (two-spotted spider mite) in compound pretreated bean leaves assessed as mortality
[18] = tested on: Tetranychus urticae; assay: Toxicity against adult Tetranychus urticae WI (two-spotted spider mite) in compound pretreated bean leaves assessed as mortality
[19] = tested on: Tetranychus urticae; assay: Toxicity against female adult Tetranychus urticae (two-spotted spider mite) F1 progeny generated from reciprocal cross between female BR-VL and male GSS in compound pretreated bean leaves assesed as mortality
[20] = tested on: Tetranychus urticae; assay: Toxicity against adult bifenazate-susceptible Tetranychus urticae LS-VL (two-spotted spider mite) in compound pretreated bean leaves assessed as mortality
[21] = tested on: Tetranychus urticae; assay: Toxicity against adult Tetranychus urticae BR-VL (two-spotted spider mite) in bean leaves assessed as mortality treated 24 hr after 2000 mg/L esterase inhibitor, DEF application
[22] = tested on: Tetranychus urticae; assay: Toxicity against adult Tetranychus urticae HOL3 (two-spotted spider mite) harboring mitochondrial P262T Cytb heteroplasmic mutation in compound pretreated bean leaves assessed as mortality
[23] = tested on: Tetranychus urticae; assay: Toxicity against adult Tetranychus urticae HOL2 (two-spotted spider mite) harboring mitochondrial G126S Cytb mutation in compound pretreated bean leaves assessed as mortality
[24] = tested on: Tetranychus urticae; assay: Toxicity against adult Tetranychus urticae GSS (two-spotted spider mite) in bean leaves assessed as mortality treated 24 hr after 2000 mg/L GST inhibitor, DEM application
[25] = tested on: Tetranychus urticae; assay: Toxicity against adult METI-resistant Tetranychus urticae MR-VP (two-spotted spider mite) in compound pretreated bean leaves assessed as mortality
[26] = tested on: Tetranychus urticae; assay: Toxicity against adult Tetranychus urticae HOL4 (two-spotted spider mite) harboring mitochondrial G126S Cytb mutation in compound pretreated bean leaves assessed as mortality
[27] = tested on: Tetranychus urticae; assay: Resistance ratio of LC50 for Tetranychus urticae WI (two-spotted spider mite) to LC50 for Tetranychus urticae GSS
[28] = tested on: Tetranychus urticae; assay: Resistance ratio of LC50 for Tetranychus urticae (two-spotted spider mite) HOL4 harboring mitochondrial G126S Cytb mutation to LC50 for Tetranychus urticae GSS
[29] = tested on: Tetranychus urticae; assay: Resistance ratio of LC50 for METI-resistant Tetranychus urticae MR-VP (two-spotted spider mite) to LC50 for Tetranychus urticae GSS
[30] = tested on: Tetranychus urticae; assay: Synergism ratio of LC50 for adult Tetranychus urticae GSS (two-spotted spider mite) to LC50 for adult Tetranychus urticae GSS in presence of 2000 mg/L GST inhibitor, DEM application
[31] = tested on: Tetranychus urticae; assay: Toxicity against adult Tetranychus urticae GSS (two-spotted spider mite) in bean leaves assessed as mortality treated 24 hr after 1000 mg/L esterase inhibitor, DEF application
[32] = tested on: Tetranychus urticae; assay: Toxicity against adult Tetranychus urticae GSS (two-spotted spider mite) in bean leaves assessed as mortality treated 24 hr after 2000 mg/L cytochrome P450 monoxygenase inhibitor, PBO application
[33] = tested on: Tetranychus urticae; assay: Toxicity against female adult Tetranychus urticae (two-spotted spider mite) F1 progeny generated from reciprocal cross between female BEL1 and male GSS in compound pretreated bean leaves assesed as mortality
[34] = tested on: Tetranychus urticae; assay: Toxicity against female adult Tetranychus urticae (two-spotted spider mite) F1 progeny generated from reciprocal cross between female GSS and male BR-VL in compound pretreated bean leaves assesed as mortality
[35] = tested on: Tetranychus urticae; assay: Toxicity against adult Tetranychus urticae HOL1 (two-spotted spider mite) harboring mitochondrial G126S and I136T Cytb mutation in compound pretreated bean leaves assessed as mortality
[36] = tested on: Tetranychus urticae; assay: Resistance ratio of LC50 for Tetranychus urticae MR-VL (two-spotted spider mite) to LC50 for Tetranychus urticae GSS
[37] = tested on: Tetranychus urticae; assay: Toxicity against adult Tetranychus urticae BEL1 (two-spotted spider mite) in bean leaves assessed as mortality treated 24 hr after 2000 mg/L esterase inhibitor, DEF application; details: BEL-1, 24 h

Compound | RatioLC50 [1] | LC50 [4] | RatioLC50 [5] | LC50 [7] | RatioLC50 [8] | RatioLC50 [12] | RatioLC50 [13] | LC50 [14] | RatioLC50 [16] | LC50 [17] | LC50 [18] | LC50 [20] | LC50 [22] | LC50 [23] | LC50 [25] | LC50 [26] | RatioLC50 [27] | RatioLC50 [28] | RatioLC50 [29] | LC50 [35] | also measured
CO/C=C(/C(=O)OC)c1ccccc1COc1cc(C(F)(F)F)nc(OC(C)C)n1 [FLUACRYPYRIM] | >1515 | > 10000 µg/mL | >1515 | 6.6 µg/mL (≈ 15.5 µM) | >1515 | >1515 | >1515 | > 10000 µg/mL | >1515 | 28.8 µg/mL (≈ 67.5 µM) | 3 µg/mL (≈ 7.04 µM) | > 10000 µg/mL | > 10000 µg/mL | > 10000 µg/mL | > 10000 µg/mL | > 10000 µg/mL | 0.5 | >1515 | >1515 | > 10000 µg/mL | RatioLC50 [2]: 1.6; LC50 [3]: > 10000 µg/mL; LC50 [6]: > 10000 µg/mL; RatioLC50 [9]: 1.7; LC50 [10]: > 10000 µg/mL; LC50 [11]: > 10000 µg/mL; LC50 [15]: > 10000 µg/mL; LC50 [19]: > 10000 µg/mL; LC50 [21]: > 10000 µg/mL; LC50 [24]: 12.4 µg/mL (≈ 29.1 µM); RatioLC50 [30]: 0.5; LC50 [31]: 4.2 µg/mL (≈ 9.85 µM); LC50 [32]: 3.8 µg/mL (≈ 8.91 µM); LC50 [33]: > 10000 µg/mL; LC50 [34]: > 10000 µg/mL; RatioLC50 [36]: 4.4; LC50 [37]: > 10000 µg/mL
COc1ccc(-c2ccccc2)cc1NNC(=O)OC(C)C [BIFENAZATE] | >2780 | > 10000 µg/mL | 12.1 | 3.6 µg/mL (≈ 12 µM) | >2780 | >2780 | >2780 | > 10000 µg/mL | 0.4 | 10.5 µg/mL (≈ 35 µM) | 8.7 µg/mL (≈ 29 µM) | 1.6 µg/mL (≈ 5.33 µM) | > 10000 µg/mL | 43.4 µg/mL (≈ 144 µM) | 7.3 µg/mL (≈ 24.3 µM) | > 10000 µg/mL | 2.4 | >2780 | 2 | > 10000 µg/mL | RatioLC50 [36]: 2.9
